Patent US7084141B2, “Inhibitors of macrophase migration inhibitory factor and methods for identifying the same” (Avanir Pharmaceuticals, priority 2001, dated 2006)
Where two headings read alike, the source gives them in different places.

Key:
Assay type in all cases: in vivo, mouse
serum TNF-α = assay: Collagen induced arthritis model, serum TNF-α (ELISA); settings: day 74, compared to untreated CIA samples
Procedure: (§1) In another experiment, fifteen DBA/1J mice, age 10–12 weeks were immunized on day 0 at the base of the tail with bovine collagen type II (CII 100 μg), emulsified in Freunds complete adjuvant (FCA; GibcoBRL). On day 21, a second dose of collagen was administered via the same route, emulsified in Freunds incomplete adjuvant. On day 28 the mice were injected subcutaneously with 100 μg of LPS (055:B5). On day 71 the mice were injected i.p. with 40 μg LPS (0111:B4). Groups and treatment protocol were the same as described as above. On day 74 blood samples were collected and cytokines were measured.

serum MIF [1] = assay: Serum MIF after LPS/galactosamine challenge in mice (ELISA)
Procedure: Doses of lipopolysacchraride (LPS) were made fresh prior to each experiment. LPS (Escherichia Coli 0111:B4, Sigma) was reconstituted by adding 0.5% TEA (1 ml USP water+[…] Triethylamine (Pierce)) to a vial of 5 mg endotoxin. Once reconstituted, the solution was incubated at 37° C. for 30 minutes. Subsequently, the solution was sonicated in a 56–60° C. bath sonicator for 30 seconds 3 times. Following sonication the mixture was vortexed for 3 minutes continuously. The stock solution of LPS was then ready for use.
Ten 10-week-old (20±2 gram) female BALB/c mice (Charles River Laboratories, Kingston, N.Y.) were housed in a group of 5 per cage with free access to food and water and were acclimatized for at least one week prior to experimentation. On the day of experiment, mice were weighed and randomly distributed into group of 10 animals of equal mean body weight. […] Mouse serum Il-1β and TNF-α were measured by ELISA using a “mouse IL 1β immunoassay or mouse TNF-α immunoassay” kits (R&D System Minneapolis, Minn.) following manufacturer's direction. Serum MIF concentrations in mouse serum were quantified by a sandwich ELISA (ChemiKine MIF Kit, Chemicon, San Diego, Calif.). Samples were analyzed in duplicate, and results were averaged. […]

DBA/1LacJ mice = assay: Collagen induced arthritis model, paw thickness; settings: day 74, eight doses at 0.4 mg/dose; vehicle 1.99 mm; p<0.05
Procedure: Twenty DBA/1LacJ mice, age 10–12 weeks, were immunized on day 0 at base of the tail with bovine collagen type II (CII 100 μg) emulsified in Freunds complete adjuvant (FCA; GibcoBRL). On day 7, a second dose of collagen was administrated via the same route (emulsified in Freunds incomplete adjuvant). On Day 14 mice were injected subcutaneously with 100 mg of LPS (055:B5). On day 70 mice were injected 40 μg LPS (0111:B4) intraperitoneally. Groups were divided according paw thickness, which was measured by a caliper, after randomization, to create a balanced starting group. Compound in buffer was given to mice on days 71, 72, 73, and 74 (total eight doses at 0.4 mg/dose, approximately 20 mg/kg of body weight). Mice were then examined on day 74 by two observers for paw thickness. FIG. 14 sets forth the experimental timeline. In this experiment, subsided mice (decline of full-blown arthritis) were treated with a final i.p. injection of LPS on day 70 to stimulate cytokine production as well as acute inflammation.

serum MIF [2] = assay: Collagen induced arthritis model, serum MIF (ELISA); settings: day 74, compared to untreated CIA samples
Procedure: as §1

[3] = test system: BALB/c mice sensitized with β-D-galactosamine

## Cn1c(=O)c([N+](=O)[O-])c(N2CCN(C(=O)c3ccco3)CC2)c2ccccc21 [compound 7e]
Serum TNF-α
  serum TNF-α levels: more significant inhibition of serum TNF-α levels
Serum MIF [1]; 5 mg/kg LPS, four hours following treatment, p=0.0003
  decrease in serum MIF: 60%
Serum MIF [1]; 10 mg/kg LPS, 20 mg/kg i.p., p=0.05
  level of circulating MIF: significant decrease in the level of circulating MIF
DBA/1LacJ mice
  edema of the paw (paw thickness): 1.87 mm
Serum MIF [2]
  serum MIF levels: reduced serum MIF levels
[3]; 1 mg/kg LPS, 20 mg/kg compound, neutralized by 300 μg/kg human recombinant MIF
  survival at 12 hours: significantly more (p<0.01) mice survive
[3]; LPS Dosage 0.1 mg/kg
  75% Animal Death: >100 h
[3]; LPS Dosage 0.5 mg/kg
  75% Animal Death: >100 h
[3]; LPS Dosage 2 mg/kg
  75% Animal Death: >100 h
[3]; LPS Dosage 5 mg/kg
  75% Animal Death: 32.0 h
[3]; LPS Dosage 10 mg/kg
  75% Animal Death: 18.0 h
[3]; LPS Dosage 40 mg/kg
  75% Animal Death: 11.6 h
[3]; lethal dose of LPS (2, 5 and 10 mg/kg), 20 mg/kg i.p., control 6%, p=0.0004
  survival: 47%
